What was measured:
[1] = tested on: human uterine leiomyoma xenografts; experiment: Xenograft of human uterine leiomyoma in immunodeficient mice, graft weight; type: in vivo; conditions: 60 d, SCID mice with E2 and P pellets, p<0.05
Method: Human uterine leiomyoma (UL) tissue was derived from any form of surgical intervention indicated for the respective diagnosis, either by hysterectomy with subsequent preparation of the tissues or by myomenucleation with or without morcellation for removal of the tissue from the abdominal cavity. Immediately after the surgery the UL tissue was placed into an appropriate sterile buffer (Vitron V7 buffer (U.S. Pat. No. 5,328,821) or Viaspan buffer for organ transplantation) at 4° C. for transport from the clinic. Under a sterile workbench, the UL tissue was cut into small pieces of 2×2×2 mm while keeping the tissue constantly moist. The small pieces of tissue were placed in tissue wells with PBS at room temperature for xenotransplantation. (M Fritsch et al. 2010, ISGE abstract & presentation). […] Therefore, graft weight was taken as a primary read-out parameter for growth of UL tissue (FIGS. 5 and 6). […]
(§1) Experiment 2 (the Thioxoimidazolidine Derivative as Androgen Receptor Antagonist)—FIGS. 6 and 7 • Human myoma tissue from two different patients was grafted s.c. in SCID mice; and the mice were treated as described in method above. […] BrdU positive nuclei were visualized by immunohistochemical staining in formalin-fixed graft sections, pictures were taken, and BrdU-positive nuclei per area were counted using the MIRAX Histoquant software (3DHISTECH Ltd, Budapest, Hungary). […]

[2] = tested on: Eker rat leiomyoma tumor-derived cells (Elt3); experiment: Proliferation of Eker rat leiomyoma tumor-derived cells (Elt3), CellTiter-Glo viability assay; type: cell-based; conditions: for proliferation of Eker rat myoma cell line (Elt3): different concentrations, 7 days incubation, FIG. 1 and FIG. 2, range comparable to estradiol
Method: Elt3 cells were obtained from Cheryl Walker (University of Texas). In comparison to other cells, Elt3 cells were characterized to be tumorigenic in nude mice (C. Walker, Recent Prog. Horm. Res., January 2002; 57: 277). Elt3 cells were grown to confluence in T-75 flasks with DMEM containing 10% FCS at 37° C. and 5% CO2. The medium was changed into 1% CCS for 24 h. 1000 cells were seeded in 96-well-plates for 24 hours. Elt3 cells were incubated with test compounds for 7 days. The CellTiter-Glo® Luminescent Cell Viability Assay (Promega) was used for determination of the number of viable cells in culture based on quantitation of the ATP present, an indicator of metabolically active cells.
Elt3 cells were obtained and grown to confluence and were seeded as described above. Elt3 cells were incubated with test compounds for 7 days. The CellTiter-Glo® Luminescent Cell Viability Assay (Promega) was used for determination of the number of viable cells in culture based on quantitation of the ATP present, an indicator of metabolically active cells.

primary myoma cells = experiment: Proliferation of primary myoma cells, CellTiter-Glo viability assay; type: cell-based, human; conditions: 10^−6 M, 7 days; p<0.05 vs. DMSO; FIG. 3; range comparable to estradiol
[3] = tested on: human uterine leiomyoma xenografts; experiment: Human xenograft cell proliferation (BrdU positive nuclei) in immunodeficient mice; type: in vivo; conditions: last week of Experiment 2, 15 mg/kg/d p.o. daily; two donors; FIG. 7
Method: Human uterine leiomyoma (UL) tissue was derived from any form of surgical intervention indicated for the respective diagnosis, either by hysterectomy with subsequent preparation of the tissues or by myomenucleation with or without morcellation for removal of the tissue from the abdominal cavity. Immediately after the surgery the UL tissue was placed into an appropriate sterile buffer (Vitron V7 buffer (U.S. Pat. No. 5,328,821) or Viaspan buffer for organ transplantation) at 4° C. for transport from the clinic. Under a sterile workbench, the UL tissue was cut into small pieces of 2×2×2 mm while keeping the tissue constantly moist. The small pieces of tissue were placed in tissue wells with PBS at room temperature for xenotransplantation. (M Fritsch et al. 2010, ISGE abstract & presentation). […] Therefore, graft weight was taken as a primary read-out parameter for growth of UL tissue (FIGS. 5 and 6).
as §1

## CC(O)(CS(=O)(=O)c1ccc(F)cc1)C(=O)Nc1ccc(C#N)c(C(F)(F)F)c1 (stereo not drawn) [bicalutamide, N-[4-cyano-3-(trifluoromethyl)phenyl]-3-[(4-fluorophenyl)sulfonyl]-2-hydroxy-2-methylpropanamide]
[1]; Experiment 1: 15 mg/kg/d p.o. every 2nd day, tissue from three patients, FIG. 5
  graft weight reduction vs. respective controls: > 30%
[2]; 10^−7 M bicalutamide with 10^−9 M DHT, p<0.05 vs. DHT, FIG. 4
  effect on DHT-induced proliferation of Elt3 cells: abolished

## C[C@]12CCC(=O)C[C@@H]1CC[C@@H]1[C@@H]2CC[C@]2(C)[C@@H](O)CC[C@@H]12 [dihydrotestosterone, 5α-dihydrotestosterone]
Primary myoma cells
  proliferation of primary myoma cells: significantly induce an increase of proliferation
[2]; 10^−9 M DHT, 7 days, p<0.05 vs. DMSO, FIG. 4
  proliferation of Elt3 cells: significantly increased
[2]
  proliferation of Eker rat myoma cell line (Elt3): dose-dependent increase of proliferation

## C[C@]12CC[C@H]3[C@@H](CCC4=CC(=O)CC[C@@]43C)[C@@H]1CC[C@@H]2O [testosterone]
Primary myoma cells
  proliferation of primary myoma cells: significantly induce an increase of proliferation
[2]
  proliferation of Eker rat myoma cell line (Elt3): dose-dependent increase of proliferation

## CC(C)(O)COc1ccc(CN2C(=S)N(c3ccc(C#N)c(C(F)(F)F)c3)C(=O)C2(C)C)cn1 [thioxoimidazolidine derivative, 4-(3-{[6-(2-hydroxy-2-methylpropoxy)pyridin-3-yl]methyl}-4,4-dimethyl-5-oxo-2-thioxoimidazolidin-1-yl)-2-(trifluoromethyl)benzonitrile]
[1]; Experiment 2: 15 mg/kg/d p.o. daily, tissue from two patients, FIG. 6
  graft weight reduction vs. respective controls: > 50%
[3]
  proliferation of grafts (BrdU-positive nuclei per area): clearly reduced

Reference: patent publication US20120238533A1, “(Heteroarylmethyl) Thiohydantoins as anticancer drugs” (BAYER PHARMA AKTIENGESELLSCHAFT, priority 2009, published 2012)
